In ChEMBL document CHEMBL1145620, “Synthesis and evaluation of sulfamide-type indolizidines as glycosidase inhibitors” (Bioorg Med Chem Lett, 2008):
Activity calls are given as the source filed them. No cut-off for these calls is given here.

What was measured:
[1] = (§1) Inhibition of jack beans alpha-mannosidase; set-up: species or system Canavalia ensiformis
[2] = Inhibition of bovine liver beta-glucosidase; set-up: species or system Bos taurus
[3] = tested on: Canavalia ensiformis; experiment: as §1
[4] = tested on: Cornu aspersum; experiment: Inhibition of snail beta-mannosidase
[5] = (§2) Inhibition of yeast alpha-glucosidase; set-up: species or system Saccharomyces cerevisiae
[6] = tested on: Saccharomyces cerevisiae; experiment: as §2
[7] = tested on: Prunus dulcis; experiment: Inhibition of almonds beta-glucosidase
[8] = molecular target: Alpha-galactosidase (Coffea arabica) (UniProt Q5DUH8); experiment: Inhibition of green coffee beans alpha-galactosidase
[9] = molecular target: T1, Beta-galactosidase (Bos taurus) (UniProt Q58D55); experiment: Inhibition of bovine liver beta-galactosidase
T1 sequence (whole entry): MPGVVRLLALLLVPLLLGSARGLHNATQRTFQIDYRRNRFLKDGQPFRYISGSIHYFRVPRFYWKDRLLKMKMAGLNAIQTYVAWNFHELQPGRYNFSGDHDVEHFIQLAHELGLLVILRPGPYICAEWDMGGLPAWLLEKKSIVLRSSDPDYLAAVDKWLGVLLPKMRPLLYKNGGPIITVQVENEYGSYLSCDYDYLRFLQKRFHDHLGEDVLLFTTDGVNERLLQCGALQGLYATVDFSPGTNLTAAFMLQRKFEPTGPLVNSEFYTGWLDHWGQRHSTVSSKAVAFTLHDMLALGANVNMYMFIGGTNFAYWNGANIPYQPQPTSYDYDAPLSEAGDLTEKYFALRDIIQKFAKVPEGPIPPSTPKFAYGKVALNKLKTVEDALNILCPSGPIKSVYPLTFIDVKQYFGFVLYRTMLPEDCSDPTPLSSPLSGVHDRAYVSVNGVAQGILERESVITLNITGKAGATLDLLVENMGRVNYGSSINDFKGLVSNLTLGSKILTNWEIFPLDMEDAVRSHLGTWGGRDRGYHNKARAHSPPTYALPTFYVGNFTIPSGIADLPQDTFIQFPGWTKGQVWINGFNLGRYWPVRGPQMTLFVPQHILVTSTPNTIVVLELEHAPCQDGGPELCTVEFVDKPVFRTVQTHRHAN

[10] = tested on: Saccharomyces cerevisiae; experiment: Inhibition of yeast isomaltase
[11] = tested on: Aspergillus niger; experiment: Inhibition of Aspergillus niger amyloglucosidase
[12] = molecular target: T2, Uncharacterized protein (Sus scrofa) (UniProt I3LIR5); experiment: Inhibition of pig kidney trehalase
T2 sequence (whole entry): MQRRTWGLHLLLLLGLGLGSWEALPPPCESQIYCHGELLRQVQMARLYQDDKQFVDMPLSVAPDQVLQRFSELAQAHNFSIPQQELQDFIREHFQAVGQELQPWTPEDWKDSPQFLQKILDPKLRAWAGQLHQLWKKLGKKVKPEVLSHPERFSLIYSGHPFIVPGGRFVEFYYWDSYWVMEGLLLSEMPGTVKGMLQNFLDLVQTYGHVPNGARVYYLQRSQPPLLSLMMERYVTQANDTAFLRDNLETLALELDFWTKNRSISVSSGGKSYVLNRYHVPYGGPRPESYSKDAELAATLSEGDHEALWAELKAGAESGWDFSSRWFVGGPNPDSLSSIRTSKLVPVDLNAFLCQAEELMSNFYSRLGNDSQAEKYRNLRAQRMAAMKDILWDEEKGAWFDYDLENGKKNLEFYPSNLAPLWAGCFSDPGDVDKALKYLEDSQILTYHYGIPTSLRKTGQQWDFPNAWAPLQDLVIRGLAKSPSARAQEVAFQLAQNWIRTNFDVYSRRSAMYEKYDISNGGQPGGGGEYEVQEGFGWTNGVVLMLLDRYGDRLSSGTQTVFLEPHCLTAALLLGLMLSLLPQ

[13] = tested on: Penicillium decumbens; experiment: Inhibition of Penicillium decumbens naringinase

Sequence of Alpha-galactosidase (Coffea arabica) (Q5DUH8 as listed by the source): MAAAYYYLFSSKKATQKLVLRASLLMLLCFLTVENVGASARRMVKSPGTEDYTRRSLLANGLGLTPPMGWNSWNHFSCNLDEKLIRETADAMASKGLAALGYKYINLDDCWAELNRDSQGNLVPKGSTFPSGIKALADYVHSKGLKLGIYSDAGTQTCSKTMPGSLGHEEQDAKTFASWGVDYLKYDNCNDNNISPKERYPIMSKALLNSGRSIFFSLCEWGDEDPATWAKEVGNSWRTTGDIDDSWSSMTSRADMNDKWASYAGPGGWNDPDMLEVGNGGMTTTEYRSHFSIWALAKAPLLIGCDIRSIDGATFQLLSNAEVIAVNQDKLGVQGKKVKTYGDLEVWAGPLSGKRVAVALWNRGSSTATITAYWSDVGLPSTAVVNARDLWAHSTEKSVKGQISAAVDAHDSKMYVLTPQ

| SMILES | Activity [3] | Activity [4] | Ki [5] [µM] | also measured |
| --- | --- | --- | --- | --- |
| O=S1(=O)NC[C@@H]2[C@@H](O)[C@H](O)[C@H](O)C(O)N21 (stereo partly specified) | – | – | – | Ki [1]: 150 µM |
| CCCC/N=C1/OC[C@@H]2[C@@H](O)[C@H](O)[C@@H](O)[C@@H](O)N12 | Active | Active | – | Ki [2]: 2.2 µM |
| O[C@@H]1[C@@H](O)[C@@H](O)N2C(=S)NC[C@@H]2[C@H]1O | Active | Active | 4200 | – |
| O=C1OC[C@@H]2[C@@H](O)[C@H](O)[C@@H](O)[C@@H](O)N12 | Active | Active | 40 | – |
| O=S1(=O)NC[C@@H]2[C@@H](O)[C@H](O)[C@@H](O)C(O)N21 (stereo partly specified) | – | inactive | – | Activity [6]: inactive; Activity [7]: inactive; Activity [8]: inactive; Activity [9]: inactive; Ki [1]: 320 µM; Activity [10]: inactive; Activity [11]: inactive; Activity [12]: inactive; Activity [13]: inactive |
| O=C1NC[C@@H]2[C@@H](O)[C@H](O)[C@@H](O)[C@@H](O)N12 | Active | Active | 5700 | – |
| O[C@@H]1[C@@H](O)[C@@H](O)N2C(=S)OC[C@@H]2[C@H]1O | Active | Active | 2.2 | – |
